Source: US20030170297A1, “Lipid-based drug delivery systems containing phospholipase a2 degradable lipid derivatives for topical application to the skin” (priority 2000, published 2003)
Values joined by “and” are separate entries in the source; they are usually repeats but may differ in a detail not shown here. Equal entries are not always repeated.

Experiments:
[1] = target: T1, Snake venom PLA2 (Agkistrodon piscivorus piscivorus) (Agkistrodon piscivorus piscivorus, UniProt P51972); experiment: PLA2-controlled calcein release across non-hydrolysable D-O-SPC target membrane (micelle or liposome carriers); assay type: biochemical
T1 construct: This PLA2 enzyme belongs to the class of low-molecular weight 14 kD secretory enzymes; from tissue; host or cells: snake venom of Agkistrodon piscivorus piscivorus
T1 sequence (P51972 1-123): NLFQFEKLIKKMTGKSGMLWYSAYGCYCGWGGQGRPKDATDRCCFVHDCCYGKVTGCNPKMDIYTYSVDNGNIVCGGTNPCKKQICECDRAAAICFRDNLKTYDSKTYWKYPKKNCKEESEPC
Protocol: Multilamellar model membrane target liposomes were made in the presence of fluorescent calcein in a self-quenching concentration of 20 mM by hydrating a film of 1,2-O-dioctadecyl-sn-glycero-3-phosphatidylcholines (D-O-SPC) in a HEPES buffer solution at pH=7.5 for one hour at 10° C. above the phase transition temperature (Tm=55° C.). Unilamellar liposomes were made by extruding the multilamellar liposomes ten times through two stacked 100 nm polycarbonate filters. The unilamellar liposomes were rapidly cooled to a temperature below the transition temperature, and the calcein-containing liposomes were separated from free calcein using a chromatographic column packed with Sephadex G-50. […] (1-O-DPPE-PEG350), di-octadecanoyl-sn-glycero-3-phosphoethanolamine-N-[methoxy(polyethylene glycol)-750 (DSPE-PEG750). were prepared as described in example 6. Calcein release from the target liposomes is determined by measuring the fluorescent intensity at 520 nm after excitation at 492 nm.
The concentrations of D-O-SPC and polymer-lipid micelles were 25 μM. Snake venom PLA2 (Agkistrodon piscivorus piscivorus) was added (25 nM) to initiate the hydrolytic reaction leading to instant formation of the polymer-lyso-1-O-DPPE and the free fatty acid hydrolysis products. […] The percentage of calcein released is determined as described in example 3.
The experimental model system consists of a negatively charged liposome carrier and a model target membrane. The carrier is a 100 nm unilamellar liposome made of dipalmitoyl phosphatidylcholine lipids (DPPC) with small amounts (2.5 mol %) of negatively charged lipid of the type dipalmitoyl phosphatidylethanolamine (DPPE)—PEG2000. The target membrane is another liposome made of 1,2-O-dioctadecyl-sn-glycero-phosphatidylcholine (D-O-SPC) which is a phospholipid where the acyl linkages of the stearoyl chains are ether bonds. In contrast to DPPC, D-O-SPC is inert towards PLA2-catalysed hydrolysis thereby mimicking the stability of an intact target cell membrane toward degradation by its own enzymes. This experimental assay, which permits simultaneous as well as separate investigation of the effect of destabilisers at the carrier liposomes and the effect of enhancers at the target membrane, involves entrapment of a water-soluble fluorescent calcein model drug in a self-quenching concentration, in the interior of the non-hydrolysable target liposome, rather than in the carrier liposome. The enhanced level of extracellular PLA2 at the target membrane can then be simulated by adding extracellular PLA2 to initiate the hydrolytic reaction in a suspension of the carrier and target liposomes. The permeation of calcein across the D-O-SPC target membrane is subsequently monitored by the increase in fluorescence. In order to investigate the effect of the presence of small amounts of negatively charged lipids in the carrier liposome, a similar experiment was performed with conventional bare DPPC liposomes. Furthermore, in order to compare and discriminate the permeability enhancing effect of lyso-phospholipids from that of free fatty acids, experiments without enzymes were carried out where lyso-phospholipids and free fatty acids were added simultaneously or separately to the target liposomes.
DPPC, DCPC, D-O-SPC, and DPPE-PEG2000 were obtained from Avanti Polar Lipids. Purified snake venom PLA2 (Agkistrodon piscivorus piscivorus) was a generous gift from dr. R. L. Biltonen. This PLA2 enzyme belongs to the class of low-molecular weight, 14 kD secretory enzymes which display structural similarity to human extracellular phospholipase A2.

[2] = target: T2, phospholipase A2 (PLA2 from Agikistrodon piscivorus piscivorus) (Agkistrodon piscivorus piscivorus, UniProt P51972); experiment: PLA2 reaction time profile, lag-time and HPLC percent hydrolysis of unilamellar liposomes; assay type: biochemical; settings: FIG. 3, liposomes composed of 1-O-DPPC, after PLA2 addition
T2 construct: This PLA2 enzyme belongs to the class of low-molecular weight 14 kD secretory enzymes; from tissue; host or cells: snake venom of Agkistrodon piscivorus piscivorus
T2 sequence (P51972 1-123): T1 sequence (P51972 1-123)
Protocol: Phospholipase A2 reaction profile and lag time measurements Purified snake-venom phospholipase A2 (PLA2 from Agikistrodon piscivorus piscivorus) has been isolated according to the procedure of Maraganore et al., J. Biol. Chem. 259, 13839-13843. […] Assay conditions for the PLA2 reaction time profile shown in FIG. 2 and the lag-time and percent hydrolysis reported in Table 1 were: 0.15 mM unilamellar liposomes, 150 nM PLA2, 150 mM KCL, 10 mM HEPES (pH 7.5), 1 mM NaN3, 30 μM CaCl2, and 10 μM EDTA.
Lag-time and percent hydrolysed 1-O-DPPC at 41° C. as determined by HPLC. The lipid concentration was 0.150 mM in a 10 mM HEPES-buffer (pH=7.5).
The catalytic reaction was initiated by adding 8.9 μL of a 42 μM PLA2 (150 nM) stock solution to 2.5 ml of the thermostated liposome suspension (0.150 mM) equilibrated for 800 sec prior to addition of PLA2. The characteristic lag-burst behaviour of PLA2 towards the liposomes is signalled by a sudden increase in the intrinsic fluorescence from PLA2 at 340 nm after excitation at 285 nm followed by a concomitant decrease in the 90° light scattering from the lipid suspension (Hønger et al., Biochemistry 35, 9003-9006). […] The turnover of the PLA2 catalysed lipid hydrolysis of 1-O-DPPC to lyso-1-O-PPC was measured by HPLC (see Table 1). […]

[3] = Calcein release across target membrane on adding lyso-phospholipid and fatty acid in the absence of PLA2; settings: absence of PLA2, 25 μM target membranes, 39° C., FIG. 12
Source text: The experimental model system consists of a negatively charged liposome carrier and a model target membrane. The carrier is a 100 nm unilamellar liposome made of dipalmitoyl phosphatidylcholine lipids (DPPC) with small amounts (2.5 mol %) of negatively charged lipid of the type dipalmitoyl phosphatidylethanolamine (DPPE)—PEG2000. The target membrane is another liposome made of 1,2-O-dioctadecyl-sn-glycero-phosphatidylcholine (D-O-SPC) which is a phospholipid where the acyl linkages of the stearoyl chains are ether bonds. In contrast to DPPC, D-O-SPC is inert towards PLA2-catalysed hydrolysis thereby mimicking the stability of an intact target cell membrane toward degradation by its own enzymes. […] The permeation of calcein across the D-O-SPC target membrane is subsequently monitored by the increase in fluorescence. […]
Multilamellar target liposomes in the presence of fluorescent calcein in a self-quenching concentration of 20 mM were made by hydrating a film of D-O-SPC in a HEPES buffer solution at pH=7.5 for one hour at 10° C. above the phase transition temperature Tm=55° C. […] Calcein release from the target liposomes is determined by measuring the fluorescent intensity at 520 nm after excitation at 492 nm. […]

[4] = target: T3, phospholipase A2 (A. piscivorus piscivorus) (Agkistrodon piscivorus piscivorus, UniProt P51972)
T3 sequence (P51972 1-123): T1 sequence (P51972 1-123)
Protocol: The hydrolysis of micelles composed DSPE-PEG750 was followed by analysis of the amount of stearic acid generated. The catalytic reaction was initiated by adding 8.9 μL of a 42 μM PLA2 (150 nM) stock solution to 2.5 ml a thermostated micelle suspension of DSPE-PEG750 (0.150 mM) equilibrated at 45° C. for 600 seconds prior to addition of PLA2. The characteristic burst behaviour of PLA2 towards the micelles is signalled by a sudden increase in the intrinsic fluorescence from PLA2 at 340 nm after excitation at 285 nm followed by a concomitant decrease in the 90° light scattering from the lipid suspension (Hønger et al., Biochemistry 35, 9003-9006). Samples for HPLC analysis of the amount of stearic acid generated were taken before adding PLA2 and 100 sec after the observed lag-time. […] HPLC analysis was made using a 5 μm diol column, a mobile phase composed of chloroform/methanol/water (730:230:30, v/v) and an evaporative light scattering detector (see example 2).

In the case of “1—hexadecyl-2-hexadecanoyl-sn-glycero-3-phosphoethanolamine-N-[methoxy(poly-ethylene glycol)-2000] [DPPE-PEG2000]”, the “rate of release of calcein across target membrane versus bare DPPC carriers” value ([1]; DPPC + 2.5 mol % DPPE-PEG2000 carriers, 37° C.) is reported as “dramatically enhanced” and the “change of lag time versus bare DPPC carriers” value ([1]; DPPC carrier liposomes with 2.5 mol % DPPE-PEG2000, 37° C.) is reported as “dramatic decrease in the lag time”.
For `CCCCCCCCCCCCCCCCOC[C@H](COP(=O)([O-])OCC[N+](C)(C)C)OC(=O)CCCCCCCCCCCCCCC` [1-O-DPPC], the “amount of 1-O-DPPC after the lag-burst (HPLC; 100% before PLA2)” value [2] was 21%.
In the case of `CCCCCCCCCCCCCCCCCCOC[C@H](COP(=O)([O-])OCC[N+](C)(C)C)OCCCCCCCCCCCCCCCCCC` [D-O-SPC, 1,2-O-dioctadecyl-sn-glycero-3-phosphatidylcholines], the “behaviour towards PLA2-catalysed hydrolysis” value ([1]; target membrane lipid) is reported as “inert”.
For `CCCCCCCCCC(=O)OC[C@H](COP(=O)([O-])OCC[N+](C)(C)C)OC(=O)CCCCCCCCC` [DCPC, didecanoyl phosphatidylcholine], the “calcein release across target membrane with short-chain phospholipid in carrier PEG-liposomes” value ([1]; small amount of DCPC in carrier PEG-liposomes, FIG. 11a) was “very fast”.
In the case of `CC(C)CCC[C@@H](C)[C@H]1CC[C@H]2[C@@H]3CC=C4C[C@@H](O)CC[C@]4(C)[C@H]3CC[C@]12C` [cholesterol], the “effect on extracellular PLA2 activity” value ([1]; large amount (≈20 mol %) incorporated into liposomes, data not shown) is reported as “deactivated” and the “effect on extracellular PLA2 activity” value ([1]; small amount (≈3 mol %) in liposomes) is reported as “activates”.
For `CCCCCCCCCCCCCCCC(=O)O` [fatty acid, palmitic acid], the “rate of calcein release across the target membrane, added separately” value [3] was “increased rate of calcein release”.
With “di-octadecanoyl-sn-glycero-3-phosphoethanolamine-N-[methoxy(polyethylene glycol)-750 [DSPE-PEG750]” the “amount of stearic acid generated by hydrolysis” value ([4]; 0.150 mM DSPE-PEG750 micelles, 150 nM PLA2, 45° C.) was 0.156 mM and 0.157 mM, the “hydrolysis of DSPE-PEG750 to lyso-DSPE-PEG750 and stearic acid” value ([4]; 0.150 mM micelles, 150 nM PLA2, 45° C., 100 sec after lag time) was 100% and the observed lag time ([4]; DSPE-PEG750 micelles 0.150 mM, 45° C.) was 10 s.
